Read-outs that look alike come from different tables or passages of the source.
Experiment: Liquid dish neat product liquid-air partition coefficient
Assay type: physicochemical
[1] = class code letter within Comment Code

| Structure (SMILES) | Log of liquid dish neat product liquid-air partition coefficient (Comment Code K/L) | Log of liquid dish neat product liquid-air partition coefficient (Comment Code K/L) [1] | Comment Code: Log of liquid dish neat product liquid-air partition coefficient (code letters K, L) | also measured |
| --- | --- | --- | --- | --- |
| COc1ccc(CC(C)C=O)cc1 (stereo not shown) [Material 586] | K (Log of liquid dish neat product liquid-air partition coefficient greater than or equal to −7) | – | – | – |
| CC(C)=CCCC(C)=C1CC=C(C)CC1 [Material 608] | K (Log of liquid dish neat product liquid-air partition coefficient greater than or equal to −7) | – | – | – |
| Cc1ccc(C(C)(C)O)cc1 [Material 4] | – | K (Log of liquid dish neat product liquid-air partition coefficient greater than or equal to −7) | – | – |
| CCCCCCCCCCCCCC(=O)OC(C)C [Material 196] | – | K (Log of liquid dish neat product liquid-air partition coefficient greater than or equal to −7) | – | – |
| CC(=O)OC1CC2C3C=CCC3C1C2(C)C (stereo not shown) [Material 360] | – | K (Log of liquid dish neat product liquid-air partition coefficient greater than or equal to −7) | K (Log of liquid dish neat product liquid-air partition coefficient greater than or equal to −7) | – |
| CCC(C)c1nccnc1OC (stereo not shown) [Material 845] | – | – | K (Log of liquid dish neat product liquid-air partition coefficient greater than or equal to −7) | – |
| C=CCCCCCCCCC=O [Material 871] | K (Log of liquid dish neat product liquid-air partition coefficient greater than or equal to −7) | – | – | – |
| N#C/C=C/c1ccccc1 [Material 556] | – | – | K (Log of liquid dish neat product liquid-air partition coefficient greater than or equal to −7) | – |
| COc1ccc(CC(C)=O)cc1 [Material 983] | – | – | K (Log of liquid dish neat product liquid-air partition coefficient greater than or equal to −7) | – |
| CC(C)C(=O)OC1CC2CC1C1C=CCC21 (stereo not shown) [Material 487] | – | K (Log of liquid dish neat product liquid-air partition coefficient greater than or equal to −7) | K (Log of liquid dish neat product liquid-air partition coefficient greater than or equal to −7) | – |
| C=C1CCCC(C)(C)C2C=C(C)CCC12 (stereo not shown) [Material 707] | K (Log of liquid dish neat product liquid-air partition coefficient greater than or equal to −7) | – | – | – |
| CC(C)c1ccc(CC=O)cc1 [Material 977] | – | – | K (Log of liquid dish neat product liquid-air partition coefficient greater than or equal to −7) | – |
| C=C(C)C1CC=C(C)C(O)C1 (stereo not shown) [Material 531] | – | K (Log of liquid dish neat product liquid-air partition coefficient greater than or equal to −7) | – | – |
| Cc1cccc(Oc2ccccc2)c1 [Material 114] | – | K (Log of liquid dish neat product liquid-air partition coefficient greater than or equal to −7) | – | – |
| C=C(C)C1CC=C(C)C(O)C1 (stereo not shown) [Material 170] | – | K (Log of liquid dish neat product liquid-air partition coefficient greater than or equal to −7) | – | – |
| CC(=O)CCCC(C)CCCC(C)CCCC(C)C (stereo not shown) [Material 782] | K (Log of liquid dish neat product liquid-air partition coefficient greater than or equal to −7) | – | – | – |
| CCCCCC(=O)Oc1ccc(C)cc1 [Material 939] | K (Log of liquid dish neat product liquid-air partition coefficient greater than or equal to −7) | – | – | – |

| Structure (SMILES) | Log of liquid dish neat product liquid-air partition coefficient (Comment Code K/L) | Log of liquid dish neat product liquid-air partition coefficient (Comment Code K/L) [1] | Comment Code: Log of liquid dish neat product liquid-air partition coefficient (code letters K, L) | also measured |
| --- | --- | --- | --- | --- |
| O=COCC=Cc1ccccc1 [Material 551] | – | K (Log of liquid dish neat product liquid-air partition coefficient greater than or equal to −7) | – | – |
| CC1(C)C2CCC3(C2)C1C1(CCC3(C)C)OCCO1 (stereo not shown) [Material 1145] | – | – | K (Log of liquid dish neat product liquid-air partition coefficient greater than or equal to −7) | Comment Code: Log of liquid dish neat product liquid-air partition coefficient (codes K/L of the Comment Code, Table 1): K (Log of liquid dish neat product liquid-air partition coefficient greater than or equal to −7) |
| CC1CC(C)(c2ccccc2)CO1 (stereo not shown) [Material 1006] | K (Log of liquid dish neat product liquid-air partition coefficient greater than or equal to −7) | – | – | – |
| CC(O)C(C)/C=C1\C[C@H]2C[C@@H]1[C@@H]1C=CC[C@H]21 (stereo partly shown) [Material 359] | – | K (Log of liquid dish neat product liquid-air partition coefficient greater than or equal to −7) | K (Log of liquid dish neat product liquid-air partition coefficient greater than or equal to −7) | – |
| CCC(C)(O)/C=C/C=C(C)C (stereo not shown) [Material 81] | – | – | K (Log of liquid dish neat product liquid-air partition coefficient greater than or equal to −7) | – |
| CCCOC(=O)[C@H](C)OC(C)(C)CC [Material 1030] | – | – | K (Log of liquid dish neat product liquid-air partition coefficient greater than or equal to −7) | – |
| CC(=O)C=CC1C(C)=CCC(C)C1(C)C (stereo not shown) [Material 704] | K (Log of liquid dish neat product liquid-air partition coefficient greater than or equal to −7) | – | – | – |
| C=CCCC(=O)c1ccccc1 [Material 792] | K (Log of liquid dish neat product liquid-air partition coefficient greater than or equal to −7) | – | – | – |
| C=CC1(C)CCC(C(C)C)=CC1C(=C)C (stereo not shown) [Material 461] | – | K (Log of liquid dish neat product liquid-air partition coefficient greater than or equal to −7) | – | – |
| CC(C=O)Cc1cccc(C(C)(C)C)c1 (stereo not shown) [Material 134] | – | K (Log of liquid dish neat product liquid-air partition coefficient greater than or equal to −7) | – | – |
| CC=Cc1ccc(OC(C)=O)c(OC)c1 [Material 213] | – | – | K (Log of liquid dish neat product liquid-air partition coefficient greater than or equal to −7) | – |
| COc1ccc(COC(C)=O)cc1 [Material 664] | – | – | K (Log of liquid dish neat product liquid-air partition coefficient greater than or equal to −7) | – |
| CCOC1CCC(C(C)(C)CC)CC1 (stereo not shown) [Material 12] | – | – | K (Log of liquid dish neat product liquid-air partition coefficient greater than or equal to −7) | – |
| O=C/C=C/c1ccccc1 [Material 554] | – | – | K (Log of liquid dish neat product liquid-air partition coefficient greater than or equal to −7) | – |
| c1ccc(Oc2ccccc2)cc1 [Material 428] | – | K (Log of liquid dish neat product liquid-air partition coefficient greater than or equal to −7) | – | – |
| CC1=C2CCC(C)C2CC(C(C)(C)O)CC1 (stereo not shown) [Material 920] | K (Log of liquid dish neat product liquid-air partition coefficient greater than or equal to −7) | – | – | – |
